From US20220304976A1, “Method of simultaneously treating viral disease caused coronavirus, its variants and mutants using a pharmaceutical micronutrient composition” (priority 2021, published 2022)
Where two headings read alike, the source gives them in different places.

Assays:
[1] = target: T1, hACE2 receptor (Homo sapiens, UniProt Q9BYF1); format: binding; settings: for Binging with ACE2 (% of control ± SD): Table 3
T1 construct: purchased GenScript

[2] = target: T2, RBD of SARS-CoV-2 spike protein binding to hACE2 receptor (Severe acute respiratory syndrome coronavirus 2, UniProt P0DTC2); assay: biochemical; settings: for inhibition at 100 µg/mL: 100 μg/ml, read-out: efficacy in inhibiting RBD binding to hACE2
T2 construct: purchased GenScript

[3] = test system: SARS-CoV-2 spike protein pseudo-typed virions; format: cell-based
[4] = test system: SARS-CoV-2 spike protein pseudo-typed virions; format: cell-based; remark: listed apart in the source
[5] = test system: IL-6 secretion; assay: Interleukin 6 (IL-6) assay in HSAEpC (ELISA); format: cell-based, human; settings: LPS 5 mcg/ml
Description: Interleukin 6 (IL-6) assay: Human Small Airways Epithelial Cells (HSAEpC) were supplied by ATCC and cultured in Small Airways Epithelial Cells culture medium (ATCC). SAEC cells were seeded in six-well plates covered with collagen at 6 passage and grown to confluent layer. […] After 72 hours incubation conditioned media were collected and IL-6 content was measured using R&D Systems Human IL6 ELISA assay in accordance with the manufacture's protocol. Results were calculated with Microsoft Excel software and presented as a percentage of unsupplemented controls (an average of three repetitions+/−standard deviation).

T1 sequence (Q9BYF1 18-740): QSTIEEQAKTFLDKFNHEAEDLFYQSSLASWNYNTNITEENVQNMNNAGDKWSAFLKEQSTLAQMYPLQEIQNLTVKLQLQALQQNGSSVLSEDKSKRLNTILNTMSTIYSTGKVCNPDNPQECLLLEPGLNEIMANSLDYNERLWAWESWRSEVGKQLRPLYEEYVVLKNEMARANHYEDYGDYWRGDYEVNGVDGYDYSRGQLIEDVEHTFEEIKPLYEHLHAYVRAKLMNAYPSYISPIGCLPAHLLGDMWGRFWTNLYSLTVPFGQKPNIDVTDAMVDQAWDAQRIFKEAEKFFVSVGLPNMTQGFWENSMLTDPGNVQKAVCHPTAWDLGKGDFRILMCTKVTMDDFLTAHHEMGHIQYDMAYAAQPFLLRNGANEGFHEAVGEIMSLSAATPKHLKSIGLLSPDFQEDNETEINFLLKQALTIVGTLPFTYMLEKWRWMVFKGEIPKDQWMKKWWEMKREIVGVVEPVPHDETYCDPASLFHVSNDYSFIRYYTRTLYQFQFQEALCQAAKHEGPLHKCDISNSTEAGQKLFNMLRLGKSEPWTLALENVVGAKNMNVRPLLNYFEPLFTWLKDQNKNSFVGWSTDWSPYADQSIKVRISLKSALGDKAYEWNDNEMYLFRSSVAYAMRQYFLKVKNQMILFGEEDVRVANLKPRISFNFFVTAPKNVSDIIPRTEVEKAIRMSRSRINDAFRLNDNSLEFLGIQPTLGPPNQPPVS

Compound	Binging with ACE2 (% of control ± SD) ([1]; tested at 0.1 mg/ml)	also measured
O=c1c(-c2ccc(O)cc2)coc2cc(O)cc(O)c12 [Genistein]	9.4 ± 2.7 % of control	–
(−)-catechin gallate	–	Binding to RBD (% of control ± DS) [2]: 37.4 ± 4.7 % of control; Binging to ACE2 (% of control ± DS) ([1]; Table 4, tested at 0.1 mg/ml): 8.6 ± 1.5 % of control
O=c1c(O)c(-c2ccc(O)cc2)oc2cc(O)cc(O)c12 [Kaempferol]	6.2 ± 2.5 % of control	–
O=c1c(O)c(-c2cc(O)c(O)c(O)c2)oc2cc(O)cc(O)c12 [Myricetin]	5.6 ± 2.1 % of control	–
D-limonene	6.4 ± 1.5 % of control	Binding with RBD (% of control ± SD) [2]: 27.2 ± 6.4 % of control
Oc1cc(O)cc(O)c1 [Phloroglucinol]	5.9 ± 3.4 % of control	–
C=C1CC[C@@H]2[C@](C)(CO)[C@H](O)CC[C@@]2(C)[C@@H]1C/C=C1/C(=O)OC[C@H]1O [Andrographolide]	–	Binding to RBD (% of control ± DS) [2]: 22.1 ± 2.5 % of control; Binging to ACE2 (% of control ± DS) ([1]; Table 4, tested at 0.1 mg/ml): 5.6 ± 2.4 % of control
COc1ccc(Cc2nccc3cc(OC)c(OC)cc23)cc1OC [Papaverine, reference compound]	6.5 ± 3.7 % of control	–
Hesperidin	8.3 ± 2.3 % of control	Binding with RBD (% of control ± SD) [2]: 90.3 ± 3.8 % of control
CC(C)c1cc2c(c(O)c1O)[C@@]1(C(=O)O)CCCC(C)(C)[C@@H]1CC2 [Carnosic acid]	6.9 ± 4.1 % of control	–
(+)-gallocatechin	–	Binding to RBD (% of control ± DS) [2]: 69.5 ± 2.8 % of control; Binging to ACE2 (% of control ± DS) ([1]; Table 4, tested at 0.1 mg/ml): 5.7 ± 1.6 % of control
O=c1cc(-c2ccc(O)cc2)oc2cc(O)cc(O)c12 [Apigenin]	8.3 ± 1.9 % of control	–
Oc1ccc(/C=C/c2cc(O)cc(O)c2)cc1 [Trans-resveratrol]	5.5 ± 2.4 % of control	–
O[C@H]1[C@H](O)[C@@H](O)CN2CC[C@H](O)[C@H]12 [Castanospermine]	5.5 ± 3.1 % of control	–
O=C1C[C@@H](c2ccc(O)cc2)Oc2cc(O)cc(O)c21 [Naringenin]	8.3 ± 1.6 % of control	Binding with RBD (% of control ± SD) [2]: 20 ± 5.1 % of control
Oc1ccc2c(c1)OC[C@]1(O)Cc3cc(O)c(O)cc3[C@H]21 [Brazilin]	4.6 ± 2.2 % of control	affinity in binding to the RBD-spike protein of SARS-CoV-2 (in words) [2]: exhibited the highest affinity; inhibition at 100 µg/mL [2]: 100%; binding to the ACE2 receptor itself (in words) [1]: neither brazilin, nor theaflavin-3,3′-digallate displayed binding affinity; inhibition of pseudo-typed virion binding to hACE2/A549 (in words) [3]: similarly inhibited binding; concentration from which inhibition of transduction is statistically significant [4]: 10 µg/mL
C[C@@H]1O[C@@H](O[C@H]2[C@H](Oc3cc(O)c4c(c3)O[C@H](c3ccc(O)cc3)CC4=O)O[C@H](CO)[C@@H](O)[C@@H]2O)[C@H](O)[C@H](O)[C@H]1O [Naringin]	3.7 ± 1.1 % of control	–
O=C(O)c1cc(O)c(O)c(O)c1 [Gallic acid]	6.5 ± 1.3 % of control	–
Urolithin A	8.8 ± 1.6 % of control	Binding with RBD (% of control ± SD) [2]: 31.1 ± 4.6 % of control
O=C(O)[C@H]1O[C@@H](Oc2cc3oc(-c4ccc(O)cc4)cc(=O)c3c(O)c2O)[C@H](O)[C@@H](O)[C@@H]1O [Scutellarin]	7.5 ± 1.7 % of control	–
O=c1cc(-c2ccccc2)oc2cc(O)c(O)c(O)c12 [Baicalein]	7.4 ± 1.4 % of control	–
O=c1c(O)c(-c2ccc(O)c(O)c2)oc2cc(O)ccc12 [Fisetin]	6.0 ± 2.4 % of control	–
Procyanidin B3	7.8 ± 2.7 % of control	Binding with RBD (% of control ± SD) [2]: 32.3 ± 3.7 % of control
O=c1cc(-c2ccc(O)c(O)c2)oc2cc(O)cc(O)c12 [Luteolin]	4.8 ± 1.6 % of control	–
CC(=O)c1c(O)c(C)c(O)c2c1OC1=CC(=O)C(C(C)=O)C(=O)C12C (stereo not drawn) [Usnic acid]	5.7 ± 1.7 % of control	–
O=C(OC[C@H]1O[C@@H](OC(=O)c2cc(O)c(O)c(OC(=O)c3cc(O)c(O)c(O)c3)c2)[C@H](OC(=O)c2cc(O)c(O)c(OC(=O)c3cc(O)c(O)c(O)c3)c2)[C@@H](OC(=O)c2cc(O)c(O)c(OC(=O)c3cc(O)c(O)c(O)c3)c2)[C@@H]1OC(=O)c1cc(O)c(O)c(OC(=O)c2cc(O)c(O)c(O)c2)c1)c1cc(O)c(O)c(OC(=O)c2cc(O)c(O)c(O)c2)c1 [Tannic acid]	7.2 ± 2.3 % of control	–

Compound	Binging with ACE2 (% of control ± SD) ([1]; tested at 0.1 mg/ml)	also measured
COc1cc(/C=C/C(=O)CC(=O)/C=C/c2ccc(O)c(OC)c2)ccc1O [Curcumin]	4.6 ± 2.4 % of control	affinity in binding to the RBD-spike protein of SARS-CoV-2 (in words) [2]: exhibited the highest affinity; inhibition at 100 µg/mL [2]: 100%; binding to the ACE2 receptor itself (in words) [1]: moderate binding; inhibition of pseudo-typed virion binding to hACE2/A549 (in words) [3]: similarly inhibited binding; concentration from which inhibition of transduction is statistically significant [4]: 5.0 µg/mL
C=C(C)[C@@H]1CCC(C)=C[C@H]1c1c(O)cc(CCCCC)cc1O [Cannabidiol, reference compound]	5.8 ± 2.0 % of control	–
Palmatine	8.5 ± 2.7 % of control	Binding with RBD (% of control ± SD) [2]: 40.4 ± 6.1 % of control
COc1ccc([C@@H]2CC(=O)c3c(O)cc(O)cc3O2)cc1O [Hesperetin]	4.9 ± 2.7 % of control	–
(−)-gallocatechin	–	Binding to RBD (% of control ± DS) [2]: 73.5 ± 6.7 % of control; Binging to ACE2 (% of control ± DS) ([1]; Table 4, tested at 0.1 mg/ml): 3.9 ± 2.3 % of control
O=C1O[C@H]2[C@@H]3OC(=O)c4cc(O)c(O)c(O)c4-c4c(O)c(O)c5oc(=O)c6c(c(O)c(O)c7oc(=O)c4c5c76)-c4c(cc(O)c(O)c4O)C(=O)OC[C@H]3OC(O)[C@@H]2OC(=O)c2cc(O)c(O)c(O)c2-c2c1cc(O)c(O)c2O (mixture of isomers) [Punicalagin]	5.4 ± 2.3 % of control	–
COc1ccc2cc3[n+](cc2c1OC)CCc1cc2c(cc1-3)OCO2 [Berberine]	9.4 ± 2.4 % of control	–
(+)-epigallocatechin gallate	–	Binding to RBD (% of control ± DS) [2]: 87.5 ± 6.8 % of control; Binging to ACE2 (% of control ± DS) ([1]; Table 4, tested at 0.1 mg/ml): 5.9 ± 2.0 % of control
CC1(C)[C@@H](O[C@H]2O[C@H](C(=O)O)[C@@H](O)[C@H](O)[C@H]2O[C@@H]2O[C@H](C(=O)O)[C@@H](O)[C@H](O)[C@H]2O)CC[C@]2(C)[C@H]3C(=O)C=C4[C@@H]5C[C@@](C)(C(=O)O)CC[C@]5(C)CC[C@@]4(C)[C@]3(C)CC[C@@H]12 [Glycyrrhizic acid]	–	Binging to ACE2 (% of control ± DS) ([1]; Table 4, tested at 0.1 mg/ml): 10.1 ± 2.8 % of control
lipopolysaccharide	–	increase of IL-6 secretion [5]: 43%
O=C(/C=C/c1ccc(O)c(O)c1)O[C@@H]1C[C@](O)(C(=O)O)C[C@@H](O)[C@H]1O [Chlorogenic acid]	4.7 ± 1.6 % of control	–
COc1c(O)cc2oc(-c3ccc(O)cc3)cc(=O)c2c1O [Hispidulin]	7.4 ± 2.1 % of control	–
O=c1c(O)c(-c2ccc(O)c(O)c2)oc2cc(O)cc(O)c12 [Quercetin]	7.8 ± 3.3 % of control	–
(−)-gallocatechin gallate	–	Binding to RBD (% of control ± DS) [2]: 75.4 ± 5.6 % of control; Binging to ACE2 (% of control ± DS) ([1]; Table 4, tested at 0.1 mg/ml): 7.5 ± 1.7 % of control
Theaflavine-3′3-digallate	–	inhibition of pseudo-typed virion binding to hACE2/A549 (in words) [3]: similarly inhibited binding; concentration from which inhibition of transduction is statistically significant [4]: 10 µg/mL
O=C(O)CC(O)C(=O)O (stereo not drawn) [Malic acid]	5.8 ± 1.4 % of control	–
C[C@@H]1O[C@@H](OC[C@H]2O[C@@H](Oc3c(-c4ccc(O)c(O)c4)oc4cc(O)cc(O)c4c3=O)[C@H](O)[C@@H](O)[C@@H]2O)[C@H](O)[C@H](O)[C@H]1O [Rutin]	4.8 ± 2.0 % of control	–
L-sulforaphane	–	Binding to RBD (% of control ± DS) [2]: 30.2 ± 3.6 % of control; Binging to ACE2 (% of control ± DS) [1]: 6.7 ± 1.5 % of control
O=c1c(O)cc([C@H]2Oc3cc(O)cc(O)c3C[C@H]2O)cc2c([C@H]3Oc4cc(O)cc(O)c4C[C@H]3O)cc(O)c(O)c12 [Theafalvin]	–	Binding to RBD (% of control ± DS) [2]: 27.3 ± 1.4 % of control; Binging to ACE2 (% of control ± DS) ([1]; Table 4, tested at 0.1 mg/ml): 7.9 ± 1.9 % of control
Schisandrin	5.1 ± 2.7 % of control	Binding with RBD (% of control ± SD) [2]: 22.4 ± 3.3 % of control
O=C(O)[C@H]1O[C@@H](Oc2cc3oc(-c4ccccc4)cc(=O)c3c(O)c2O)[C@H](O)[C@@H](O)[C@@H]1O [Baicalin]	4.9 ± 1.9 % of control	–
COc1cc(/C=C/c2ccc(O)cc2)cc(OC)c1 [Pterostilbene]	9.4 ± 2.5 % of control	–
O=C(/C=C/c1ccc(O)c(O)c1)O[C@H](Cc1ccc(O)c(O)c1)C(=O)O [Rosmarinic acid]	7.9 ± 1.8 % of control	–
O=c1c(O)c(-c2ccc(O)cc2O)oc2cc(O)cc(O)c12 [Morin]	5.6 ± 3.1 % of control	–
Procyanidin B2	5.8 ± 2.7 % of control	Binding with RBD (% of control ± SD) [2]: 31.1 ± 3.6 % of control
